Experimental data published in PubChem BioAssay (NCI).
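GI50 = concentration required for 50% inhibition of growth. TGI: concentration producing complete growth inhibition.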

Legend:
Test in all cases: NCI tumour cell line growth inhibition, 384-well format
[1] = test system: MALME-3M melanoma
[2] = test system: CAKI-1 renal
[3] = test system: SK-MEL-28 melanoma
[4] = test system: A549 NSCLC
[5] = test system: HL-60(TB) leukemia
[6] = test system: UACC-62 melanoma
[7] = test system: MDA-MB-231 breast
[8] = test system: HOP-92 NSCLC
[9] = test system: SF-539 CNS
[10] = test system: DU-145 prostate
[11] = test system: PC-3 prostate
[12] = test system: ACHN renal
[13] = test system: SN12C renal
[14] = test system: IGROV1 ovarian
[15] = test system: NCI-H23 lung
[16] = test system: HCC-2998 colon
[17] = test system: HT29 colon
[18] = test system: 786-0 renal
[19] = test system: NCI-H322M lung
[20] = test system: OVCAR-5 ovarian
[21] = test system: UACC-257 melanoma
[22] = test system: SK-OV-3 ovarian
[23] = test system: HCT-15 colon
[24] = test system: M14 melanoma
[25] = test system: OVCAR-4 ovarian
[26] = test system: SNB-75 CNS
[27] = test system: SNB-19 CNS
[28] = test system: HOP-62 NSCLC
[29] = test system: SF-295 CNS
[30] = test system: EKVX NSCLC
[31] = test system: SK-MEL-5 melanoma
[32] = test system: BT-549 breast
[33] = test system: UO-31 renal
[34] = test system: SF-268 CNS
[35] = test system: HS 578T breast
[36] = test system: NCI-H460 NSCLC
[37] = test system: SR leukemia
[38] = test system: T-47D breast
[39] = test system: COLO 205 colon
[40] = test system: A498 renal
[41] = test system: CCRF-CEM leukemia
[42] = test system: HCT-116 colon
[43] = test system: NCI/ADR-RES ovarian
[44] = test system: MOLT-4 leukemia
[45] = test system: SW-620 colon
[46] = test system: RPMI-8226 leukemia
[47] = test system: K-562 leukemia
[48] = test system: RXF 393 renal
[49] = test system: MDA-MB-468 breast
[50] = test system: NCI-H522 lung
[51] = test system: TK-10 renal
[52] = test system: NCI-H226 lung
[53] = test system: MDA-MB-435 melanoma
[54] = test system: U251 glioblastoma
[55] = test system: MCF7 breast
[56] = test system: KM12 colon
[57] = test system: LOX IMVI melanoma
[58] = test system: OVCAR-3 ovarian
[59] = test system: SK-MEL-2 melanoma

## NC(=O)Nc1cc(-c2cccc(F)c2)sc1C(=O)N[C@H]1CCCNC1
[1]
  GI50: 185 nM
  TGI: 1740 nM
[2]
  GI50: 294 nM
  TGI: 1500 nM
[3]
  GI50: 1500 nM
  TGI: 8600 nM
[4]
  GI50: 315 nM
  TGI: 1570 nM
[5]
  GI50: 120 nM
  TGI: 245 nM
[6]
  GI50: 319 nM
  TGI: 3330 nM
[7]
  GI50: 300 nM
  TGI: 1570 nM
[8]
  GI50: 38.1 nM
  TGI: 407 nM
[9]
  GI50: 22.8 nM
  TGI: 104 nM
[10]
  GI50: 290 nM
  TGI: 1340 nM
[11]
  GI50: 259 nM
  TGI: 3960 nM
[12]
  GI50: 49.7 nM
  TGI: 295 nM
[13]
  GI50: 130 nM
  TGI: 968 nM
[14]
  GI50: 79.6 nM
  TGI: 887 nM
[15]
  GI50: 66.5 nM
  TGI: 267 nM
[16]
  GI50: 10.6 nM
  TGI: 149 nM
[17]
  GI50: 221 nM
  TGI: 700 nM
[18]
  GI50: 179 nM
  TGI: 1050 nM
[19]
  GI50: 161 nM
  TGI: 967 nM
[20]
  GI50: 289 nM
  TGI: 1620 nM
[21]
  GI50: 1970 nM
  TGI: 11100 nM
[22]
  GI50: 136 nM
  TGI: 380 nM
[23]
  GI50: 1280 nM
  TGI: 2890 nM
[24]
  GI50: 45.1 nM
  TGI: 224 nM
[25]
  GI50: 69.6 nM
  TGI: 348 nM
[26]
  GI50: 188 nM
  TGI: 1260 nM
[27]
  GI50: 377 nM
  TGI: 2290 nM
[28]
  GI50: 146 nM
  TGI: 565 nM
[29]
  GI50: 142 nM
  TGI: 461 nM
[30]
  GI50: 389 nM
  TGI: 2150 nM
[31]
  GI50: 127 nM
  TGI: 408 nM
[32]
  GI50: 16.6 nM
  TGI: 105 nM
[33]
  GI50: 362 nM
  TGI: 1510 nM
[34]
  GI50: 132 nM
  TGI: 910 nM
[35]
  GI50: 13.2 nM
  TGI: 284 nM
[36]
  GI50: 284 nM
  TGI: 2060 nM
[37]
  GI50: 36.5 nM
  TGI: 154 nM
[38]
  GI50: 12700 nM
  TGI: 25400 nM
[39]
  GI50: 261 nM
  TGI: 1080 nM
[40]
  GI50: 32.3 nM
  TGI: 144 nM
[41]
  GI50: 40.4 nM
  TGI: 192 nM
[42]
  GI50: 1000 nM
  TGI: 2670 nM
[43]
  GI50: 9190 nM
  TGI: 23000 nM
[44]
  GI50: 40.6 nM
  TGI: 189 nM
[45]
  GI50: 595 nM
  TGI: 2120 nM
[46]
  GI50: 34.9 nM
  TGI: 186 nM
[47]
  GI50: 103 nM
  TGI: 237 nM
[48]
  GI50: 12.1 nM
  TGI: 43.2 nM
[49]
  GI50: 202 nM
  TGI: 698 nM
[50]
  GI50: 128 nM
  TGI: 589 nM
[51]
  GI50: 109 nM
  TGI: 357 nM
[52]
  GI50: 508 nM
  TGI: 2300 nM
[53]
  GI50: 143 nM
  TGI: 302 nM
[54]
  GI50: 385 nM
  TGI: 2880 nM
[55]
  GI50: 53.3 nM
  TGI: 12200 nM
[56]
  GI50: 22 nM
  TGI: 228 nM
[57]
  GI50: 359 nM
  TGI: 1240 nM
[58]
  GI50: 103 nM
  TGI: 539 nM
[59]
  GI50: 108 nM
  TGI: 284 nM
